Key:
keratinocytes = details: cited from earlier work
[1] = test system: SCID-mouse-human skin model of psoriasis; details: cited from earlier work
psoriasis = experiment: Case report: patient with severe psoriasis treated with oral lestaurtinib; type: in vivo, human; details: person, severe psoriasis in the ankle region; oral solution 60 mg bid, 80 mg bid after 29 days; observed on day 60
Method: A patient with a history of renal and prostate cancer, arthritic pain and chronic bronchitis presented with severe psoriasis in the ankle region. The patient started treatment with lestaurtinib at a dosage of 60 mg bid. Lestaurtinib was administered twice daily as an oral solution at a concentration of 25 mg/mL in polysorbate 80 NF (10 mL) and propylene glycol USP (10 mL), diluted in juice. The following juices are approved for use to administer lestaurtinib: grape, pineapple, apple, V8® 100% vegetable juice, and orange juice (pulp free). After 29 days from initiation, the dosage was increased to 80 mg bid.

COC(=O)[C@@]1(O)C[C@H]2O[C@]1(C)n1c3ccccc3c3c4c(c5c6ccccc6n2c5c31)C(=O)NC4 [Compound K-252a, K-252a]
block of autocrine NGF loop and keratinocyte apoptosis (keratinocytes): can block an autocrine NGF loop and result in keratinocyte apoptosis | improvement in the skin condition [1]: noticeable improvement in the skin condition

C[C@]12O[C@H](C[C@]1(O)CO)n1c3ccccc3c3c4c(c5c6ccccc6n2c5c31)CNC4=O [lestaurtinib]
remission of psoriasis (psoriasis): relative remission of psoriasis

From US20060058250A1, “Methods of treating proliferative skin diseases using carbazole derivatives” (Cephalon, Inc., priority 2004, published 2006)
